In patent publication US12616698B2, “Methods for reducing liver fat and for treating fatty liver disorders” (Corcept Therapeutics Incorporated, priority 2021, dated 2026):
Entries after “also recorded” stand apart in the source; their conditions may differ.

Columns and labels:
[1] = system: patients presumed to have NASH; test: Phase 2a study: NASH biomarkers (pro-C3, ELF score and its components); assay type: in vivo, human; details: for Enhanced Liver Fibrosis (ELF) Score, Change from Baseline mean / Enhanced Liver Fibrosis (ELF) Score, Value mean: unitless
Protocol: Measures of the effectiveness of miricorilant versus placebo in reducing liver fat were assessed by magnetic resonance imaging (MRI). The change from baseline MRI measurements relative to MRI measurements taken following a course of daily miricorilant or placebo administration were assessed by magnetic resonance imaging-proton density fat fraction (MRI-PDFF). Additionally, effects of miricorilant may be assessed by measuring one or more of the following, either by comparing change from baseline after one or more days of miricorilant administration, or by comparing measurements in patients administered miricorilant versus patients administered placebo: change in liver fat assessed by MRI-PDFF; change in AST, ALT, and gamma-glutamyl transferase (GGT); change in propeptide of type III collagen (pro-C3); change in enhanced liver fibrosis (ELF) score and its components (hyaluronic acid, tissue inhibitor of metalloproteinases-1 [TIMP-1], type III procollagen [PIIINP]); change in ACTH, serum cortisol, and serum aldosterone (pharmacodynamic assessments); change in Homeostatic Model Assessment of Insulin Resistance (HOMA-IR); change in absolute body weight; and other measurements. […] For patients with diabetes, change in HbA1c and change in fasting blood glucose may be measured to assess the effects of miricorilant. Change in blood pressure may be measured in patients with high blood pressure to assess the effects of miricorilant. Pharmacokinetic (PK) parameters were estimated from steady state plasma concentrations of miricorilant.
NASH biomarkers include AST, ALT, GGT, pro-C3, ELF score and its components (hyaluronic acid, TIMP-1, PIIINP). Blood for measuring levels of AST, ALT, and GGT (as part of the chemistry panel) will be collected. Small fragments of collagen, called propeptides, are released during fibrosis. Pro-C3 is the propeptide of type III collagen and detection of pro-C3 is anticipated to reflect the formation of new fibrotic tissue in the liver (Vilar-Gomez and Chalasani 2018). Blood samples for measuring pro-C3 were collected. […] Each of these markers is measured by an immunoassay and an ELF score is generated, from which a level of fibrosis severity can be determined.
(Units are nanograms per milliliter (ng/mL) except for the enhanced liver fibrosis score (ELF), which is unitless.)

C57BL/6J male mice = test: AMLN diet NASH mouse model, once per day oral dosing; assay type: in vivo; details: 30 mg/kg/day orally once per day, 8 weeks
Protocol: Two studies were conducted in C57BL/6J male mice (n=12 per group) maintained on a diet high in fat (40%), cholesterol (2%) and fructose (20%; referred to as the AMLN diet: see, e.g., Tolbol et al., World Journal of Gastroenterology, 24(2):179-194 (2018)) for 42 weeks before dosing with miricorilant was initiated. In the first study, all animals ate the AMLN diet, and received either placebo, 30 mg/kg miricorilant, or 60 mg/kg mifepristone once per day orally. […] All animals received the AMLN diet for 42 weeks prior to receiving their first dose of study drug or placebo. 4 weeks prior to receiving that first dose, a liver biopsy and histological examination of biopsy tissue was performed for each animal; 3 weeks prior to receiving that first dose, animals were randomized into three groups: control, miricorilant, or mifepristone. […] At 56 days (week 8) after initiation of drug administration, plasma ALT, AST, triglycerides, total cholesterol, and miricorilant levels were measured, and animals were sacrificed, liver necropsies were performed, liver histological ((NAFLD Activity Score, Fibrosis Stage, steatosis (scored using hematoxylin and eosin staining (HE)), col1a (scored using immunohistochemistry (IHC)) and Galectin-3 (IHC)) and liver biochemical measurements (including liver triglycerides and total cholesterol) were made, and liver and plasma samples were obtained for genetic ((e.g., RNA sequencing) and other analyses.
Thus, in these studies, the mice were subjected to a liver biopsy approximately 4 weeks before initiation of dosing with miricorilant and only mice with confirmed fibrosis (fibrosis stage ≥1) and steatosis (score ≥2) were entered into the study. […] Body weight and food consumption were monitored throughout the study.
Liver samples were fixed in formalin, paraffin embedded and sections were stained with hematoxylin and eosin (H&E) and Sirius Red. Samples were scored for NAS and fibrosis stage using the clinical criteria outlined by Kleiner et al., Hepatology 41:1313-1321 (2005). […]

O=c1[nH]c(=O)c(Cc2cccc(C(F)(F)F)c2)c([C@H]2CC[C@H](c3ccccc3)CC2)[nH]1 [miricorilant, (E)-6-(4-Phenylcyclohexyl)-5-(3-trifluoromethylbenzyl)-1H-pyrimidine-2,4-dione]
Hyaluronic Acid, Change from Baseline mean ([1]; 600 mg Miricorilant (N = 5)): -17.8 ng/mL
Hyaluronic Acid, Value mean ([1]; 600 mg Miricorilant (N = 5)): 70.7 ng/mL
Propeptide of Type III Collagen (pro-C3), Change from Baseline mean ([1]; 600 mg Miricorilant (N = 5)): 0.5 ng/mL
Propeptide of Type III Collagen (pro-C3), Value mean ([1]; 600 mg Miricorilant (N = 5)): 10.7 ng/mL
Tissue Inhibitor of Metalloproteinases-1 (TIMP-1), Change from Baseline mean ([1]; 600 mg Miricorilant (N = 5)): 3.2 ng/mL
Tissue Inhibitor of Metalloproteinases-1 (TIMP-1), Value mean ([1]; 600 mg Miricorilant (N = 5)): 249.5 ng/mL
Type III Procollagen (PIIINP), Change from Baseline mean ([1]; 600 mg Miricorilant (N = 5)): -0.17 ng/mL
Type III Procollagen (PIIINP), Value mean ([1]; 600 mg Miricorilant (N = 5)): 9.3 ng/mL
Enhanced Liver Fibrosis (ELF) Score, Change from Baseline mean ([1]; 600 mg Miricorilant (N = 5)): −0.05
Enhanced Liver Fibrosis (ELF) Score, Value mean ([1]; 600 mg Miricorilant (N = 5)): 9.4
Hyaluronic Acid, Change from Baseline mean ([1]; 900 mg Miricorilant (N = 3)): -50.0 ng/mL
Hyaluronic Acid, Value mean ([1]; 900 mg Miricorilant (N = 3)): 110.9 ng/mL
Propeptide of Type III Collagen (pro-C3), Change from Baseline mean ([1]; 900 mg Miricorilant (N = 3)): -7.9 ng/mL
Propeptide of Type III Collagen (pro-C3), Value mean ([1]; 900 mg Miricorilant (N = 3)): 24.1 ng/mL
Tissue Inhibitor of Metalloproteinases-1 (TIMP-1), Change from Baseline mean ([1]; 900 mg Miricorilant (N = 3)): -79.4 ng/mL
Tissue Inhibitor of Metalloproteinases-1 (TIMP-1), Value mean ([1]; 900 mg Miricorilant (N = 3)): 402.1 ng/mL
Type III Procollagen (PIIINP), Change from Baseline mean ([1]; 900 mg Miricorilant (N = 3)): -5.35 ng/mL
Type III Procollagen (PIIINP), Value mean ([1]; 900 mg Miricorilant (N = 3)): 17.7 ng/mL
Enhanced Liver Fibrosis (ELF) Score, Change from Baseline mean ([1]; 900 mg Miricorilant (N = 3)): −0.90
Enhanced Liver Fibrosis (ELF) Score, Value mean ([1]; 900 mg Miricorilant (N = 3)): 10.6
NAFLD Activity Score (NAS) (C57BL/6J male mice; AMLN diet, vs control (FIG. 7A)): reduced; also recorded: significant reductions; also recorded: either did not increase, or decreased
Hepatic ballooning portion of the NAFLD score (liver cell degeneration) (C57BL/6J male mice; post- vs pre-study biopsy (FIG. 7B)): reduced
Fibrosis stage score, post-study compared to pre-study (C57BL/6J male mice; none showed an increased score): some mice in the miricorilant group showed decreased post-study fibrosis stage score
